# System: brain organoids
# Experiment: 3D shell MEA recording of brain organoid electrical activity with glutamate stimulation
# Type: cell-based, human
# Details: brain organoid in 3D shell MEA
# Excerpt: A 9-week brain organoid was placed at the center of the shell electrodes during self-folding, which allowed the organoid to be enveloped within the leaflets with the PEDOT: PSS electrodes in intimate contact with the organoid (FIG. 10B). A glass cylinder was placed around the device to hold the cell media. Electrode outputs were fabricated for signal acquisition (FIG. 10A). The three PEDOT: PSS electrodes on the leaflets successfully recorded the field potential of the enveloped brain organoid (FIG. 10C, FIG. 11). […] The overlaid spike waveform indicates an average spike duration of ˜2 ms, with varied amplitude during the recording (FIG. 10E). We note that we can add more electrodes to the leaflets to improve the recording (FIGS. 12A-12F, FIGS. 13A-13D).
# We further confirm that the signal recorded is from the brain organoids by examining the response to 20 μM glutamate neurotransmitter added to the culture media that served as a positive control for the spontaneous recording (23, 37). […]
# After preprocessing the raw signals, we detected spikes separate for each channel using a threshold-based method, where the threshold is automatically set to be 5σn. […] After spike locations were detected, we isolated them by windows of length 3.5 ms. […]
compound,measurement,setting,value
N[C@@H](CCC(=O)O)C(=O)O [glutamate],"spike signal-to-noise ratio (SNR), increase of median (amplitude of firing spikes)","20 μM glutamate added to the culture media, before vs after application",57.6%
same,inter-spike-interval (ISI) of glutamate-induced signals,"20 μM glutamate, before vs after stimulation",longer

# From patent US20240344014A1, “3D SHELL MICR[…] FOR EL[…] ORGANOIDS” (The Johns Hopkins University, priority 2023, published 2024)
